Laboratory results from ChEMBL document CHEMBL1150221, “Isolation and structure determination of nostocyclopeptides A1 and A2 from the terrestrial cyanobacterium Nostoc sp. ATCC53789” (J Nat Prod, 2001).
Activity calls are given as the source filed them. No cut-off for these calls is given here.

Columns and labels:
Plasminogen = Plasminogen (Homo sapiens, UniProt P00747); assay: Inhibition of plasmin
Pseudomonas aeruginosa = assay: […] activity against Pseudomonas aeruginosa at 25 ug/disk; assay type: functional, organism-based
[1] = Inhibition of trypsin
Papain = target: T1, Papain (Carica papaya, UniProt P00784); assay: Inhibition of papaya papain
T1 sequence (P00784 whole entry): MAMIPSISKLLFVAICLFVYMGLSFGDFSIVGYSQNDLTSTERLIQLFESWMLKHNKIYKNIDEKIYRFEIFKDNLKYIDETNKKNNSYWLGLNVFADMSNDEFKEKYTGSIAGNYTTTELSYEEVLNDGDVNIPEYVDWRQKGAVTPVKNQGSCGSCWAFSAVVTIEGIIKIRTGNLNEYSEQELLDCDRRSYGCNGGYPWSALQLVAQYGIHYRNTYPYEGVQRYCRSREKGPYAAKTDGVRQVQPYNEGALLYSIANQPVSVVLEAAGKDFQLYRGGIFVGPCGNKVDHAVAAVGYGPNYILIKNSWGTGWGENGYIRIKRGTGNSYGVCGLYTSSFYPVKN

Candida albicans = assay: Antifungal activity against Candida albicans at 25 ug/disk; assay type: functional, organism-based
Prothrombin = Prothrombin (Homo sapiens, UniProt P00734); assay: Inhibition of thrombin
LoVo = assay: Cytotoxicity against human LoVo cells; assay type: functional, cell-based
[2] = Inhibition of protease
KB = assay: Cytotoxicity against human KB cells; assay type: functional, cell-based
[3] = Inhibition of elastase
[4] = tested on: Mycobacterium tuberculosis; assay: […] activity against Mycobacterium tuberculosis 35818 at 25 ug/disk; assay type: functional, organism-based
[5] = tested on: Mycobacterium tuberculosis; assay: […] activity against Mycobacterium tuberculosis 25177 at 25 ug/disk; assay type: functional, organism-based
[6] = Inhibition of chymotrypsin

Chain of Plasminogen (P00747 97-580 limits assumed): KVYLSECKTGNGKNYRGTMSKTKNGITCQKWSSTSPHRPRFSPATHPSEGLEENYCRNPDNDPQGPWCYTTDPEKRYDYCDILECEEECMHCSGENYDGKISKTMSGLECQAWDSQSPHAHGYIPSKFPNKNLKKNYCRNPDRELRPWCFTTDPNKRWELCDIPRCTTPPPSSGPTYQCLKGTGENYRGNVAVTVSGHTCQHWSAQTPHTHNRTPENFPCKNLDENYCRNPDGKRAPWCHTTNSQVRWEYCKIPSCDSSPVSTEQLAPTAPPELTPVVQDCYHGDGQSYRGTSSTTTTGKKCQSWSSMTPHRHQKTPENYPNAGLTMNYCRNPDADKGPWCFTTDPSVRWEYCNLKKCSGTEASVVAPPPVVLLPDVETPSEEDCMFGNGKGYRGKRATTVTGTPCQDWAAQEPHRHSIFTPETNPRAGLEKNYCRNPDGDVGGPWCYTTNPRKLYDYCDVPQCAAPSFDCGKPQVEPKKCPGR
Chain of Plasminogen (P00747 581-810 limits assumed): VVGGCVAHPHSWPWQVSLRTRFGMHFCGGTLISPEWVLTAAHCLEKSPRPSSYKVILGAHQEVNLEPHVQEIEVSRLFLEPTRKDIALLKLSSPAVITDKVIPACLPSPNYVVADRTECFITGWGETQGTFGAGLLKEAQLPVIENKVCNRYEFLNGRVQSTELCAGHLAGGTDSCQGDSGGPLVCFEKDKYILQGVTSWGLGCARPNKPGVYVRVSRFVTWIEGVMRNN

Compound	IC50 (Plasminogen)	Activity (Pseudomonas aeruginosa)	IC50 [1]	IC50 (Papain)	Activity (Candida albicans)	IC50 (Prothrombin)	IC50 (LoVo)	Activity [2]	IC50 (KB)	IC50 [3]	Activity [4]	Activity [5]	IC50 [6]
CC[C@H](C)[C@@H]1NC(=O)[C@@H](CCC(N)=O)NC(=O)CNC(=O)[C@H](Cc2ccc(O)cc2)/N=C/[C@H](CC(C)C)NC(=O)[C@@H]2C[C@H](C)CN2C(=O)[C@H](CO)NC1=O [NOSTOCYCLOPEPTIDE A1]	> 50 µM	inactive	> 50 µM	< 25 µM	inactive	> 50 µM	1 µM	inactive	1 µM	< 25 µM	inactive	inactive	< 25 µM
CC[C@H](C)[C@@H]1NC(=O)[C@@H](CCC(N)=O)NC(=O)CNC(=O)[C@H](Cc2ccc(O)cc2)/N=C/[C@H](Cc2ccccc2)NC(=O)[C@@H]2C[C@H](C)CN2C(=O)[C@H](CO)NC1=O [NOSTOCYCLOPEPTIDE A2]	> 50 µM	inactive	> 50 µM	< 25 µM	inactive	> 50 µM	1 µM	inactive	1 µM	< 25 µM	inactive	inactive	< 25 µM
